Data published in patent US7528138B2, “Pyrazolo[1,5-a]pyrimidines useful as inhibitors of protein kinases” (Vertex Pharmaceuticals Incorporated, priority 2004, dated 2009).

Legend:
Assay type in all cases: biochemical
JAK3 = biological target: T1, JAK3 (Homo sapiens, UniProt P52333); test: JAK3 Inhibition Assay, 33P incorporation; settings: enzyme inhibition data (Ki), Table 11
T1 sequence (P52333 1-1124): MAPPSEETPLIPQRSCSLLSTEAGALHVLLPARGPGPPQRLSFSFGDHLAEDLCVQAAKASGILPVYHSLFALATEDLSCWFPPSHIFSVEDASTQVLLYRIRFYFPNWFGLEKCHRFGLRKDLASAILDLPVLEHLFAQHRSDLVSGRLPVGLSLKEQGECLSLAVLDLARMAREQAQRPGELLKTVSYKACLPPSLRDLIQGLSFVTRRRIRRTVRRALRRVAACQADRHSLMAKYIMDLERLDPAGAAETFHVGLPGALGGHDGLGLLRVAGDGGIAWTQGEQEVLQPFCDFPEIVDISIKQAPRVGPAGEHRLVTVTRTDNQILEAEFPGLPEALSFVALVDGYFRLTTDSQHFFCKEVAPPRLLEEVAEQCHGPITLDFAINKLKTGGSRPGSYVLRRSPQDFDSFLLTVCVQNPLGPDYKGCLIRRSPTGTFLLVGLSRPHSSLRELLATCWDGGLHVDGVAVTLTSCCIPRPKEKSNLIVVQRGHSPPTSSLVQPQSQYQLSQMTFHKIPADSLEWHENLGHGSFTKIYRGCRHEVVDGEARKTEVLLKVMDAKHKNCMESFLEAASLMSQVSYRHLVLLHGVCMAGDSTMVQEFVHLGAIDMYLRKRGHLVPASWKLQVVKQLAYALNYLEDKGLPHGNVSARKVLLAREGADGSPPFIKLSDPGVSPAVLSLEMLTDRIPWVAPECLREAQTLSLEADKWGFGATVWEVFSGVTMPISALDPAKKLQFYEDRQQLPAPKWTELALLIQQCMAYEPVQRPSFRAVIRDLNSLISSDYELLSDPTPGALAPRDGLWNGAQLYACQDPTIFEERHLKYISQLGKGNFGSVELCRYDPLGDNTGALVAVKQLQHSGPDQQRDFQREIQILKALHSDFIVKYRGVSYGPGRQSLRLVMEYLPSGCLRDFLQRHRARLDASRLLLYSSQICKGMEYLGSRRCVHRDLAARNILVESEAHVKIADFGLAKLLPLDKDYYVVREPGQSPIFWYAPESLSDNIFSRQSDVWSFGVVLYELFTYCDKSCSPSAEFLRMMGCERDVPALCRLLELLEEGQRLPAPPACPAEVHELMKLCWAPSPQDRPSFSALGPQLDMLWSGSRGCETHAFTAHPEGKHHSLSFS
Procedure: Reactions are carried out in a kinase buffer containing 100 mM HEPES (pH 7.4), 1 mM DTT, 10 mM MgCl2, 25 mM NaCl, and 0.01% BSA. Substrate concentrations in the assay are 5 μM ATP (200 uCi/μmole ATP) and 1 μM poly(Glu)4Tyr. Reactions are carried out at 25° C. and 1 nM JAK3. To each well of a 96 well polycarbonate plate is added 1.5 μl of a candidate JAK3 inhibitor along with 50 μl of kinase buffer containing 2 μM poly(Glu)4Tyr and 10 μM ATP. This is then mixed and 50 μl of kinase buffer containing 2 nM JAK3 enzyme is added to start the reaction. After 20 minutes at room temperature (25 C), the reaction is stopped with 50 μl of 20% trichloroacetic acid (TCA) that also contained 0.4 mM ATP. The entire contents of each well are then transferred to a 96 well glass fiber filter plate using a TomTek Cell Harvester. After washing, 60 μl of scintillation fluid is added and ^33P incorporation detected on a Perkin Elmer TopCount.

Itk = biological target: T2, Itk (Homo sapiens, UniProt Q08881); test: ITK Inhibition Assay (Radiometric), radioactive-phosphate incorporation; settings: enzyme inhibition data (Ki), Table 11; radiometric or UV assay not stated
T2 sequence (Q08881 1-620): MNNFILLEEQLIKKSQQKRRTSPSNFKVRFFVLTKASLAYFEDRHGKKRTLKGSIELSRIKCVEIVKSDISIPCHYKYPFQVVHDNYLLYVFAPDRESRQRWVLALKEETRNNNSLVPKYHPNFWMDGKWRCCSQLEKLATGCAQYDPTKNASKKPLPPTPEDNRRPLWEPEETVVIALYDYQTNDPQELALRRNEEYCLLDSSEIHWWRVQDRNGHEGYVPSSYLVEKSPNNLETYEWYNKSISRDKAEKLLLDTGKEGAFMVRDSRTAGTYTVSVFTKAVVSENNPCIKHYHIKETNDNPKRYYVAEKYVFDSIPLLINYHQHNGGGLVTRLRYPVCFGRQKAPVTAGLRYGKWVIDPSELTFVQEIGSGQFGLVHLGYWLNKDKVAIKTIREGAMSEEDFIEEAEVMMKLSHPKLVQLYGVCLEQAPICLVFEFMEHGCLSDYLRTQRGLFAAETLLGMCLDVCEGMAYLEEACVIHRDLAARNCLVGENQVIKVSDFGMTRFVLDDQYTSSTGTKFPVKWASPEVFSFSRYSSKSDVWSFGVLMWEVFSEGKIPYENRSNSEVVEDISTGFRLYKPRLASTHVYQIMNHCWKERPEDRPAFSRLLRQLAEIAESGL
Procedure: Assays are carried out in a mixture of 20 mM MOPS (pH 7.0), 10 mM MgCl2, 0.1% BSA and 1 mM DTT. Final substrate concentrations in the assay are 7.5 μM [γ-33P]ATP (400 mCi 33P ATP/mmol ATP, Amersham Pharmacia Biotech/Sigma Chemicals) and 3 μM peptide (SAM68 protein D332-443). Assays are carried out at 25° C. in the presence of 50 nM Itk. An assay stock buffer solution is prepared containing all of the reagents listed above, with the exception of ATP and the test compound of interest. 50 μL of the stock solution is placed in a 96 well plate followed by addition of 2 μL of DMSO stock containing serial dilutions of the test compound (typically starting from a final concentration of 50 μM with 2-fold serial dilutions) in duplicate (final DMSO concentration 2%). The plate is pre-incubated for 10 minutes at 25° C. and the reaction initiated by addition of 50 μL [γ-33P]ATP (final concentration 7.5 μM).
The reaction is stopped after 10 minutes by the addition of […] 0.2M phosphoric acid+0.01% TWEEN 20. A multiscreen phosphocellulose filter 96-well plate (Millipore, Cat no. MAPHN0B50) is pretreated with 100 μL 0.2M phosphoric acid +0.01% TWEEN 20 prior to the addition of […] of the stopped assay mixture. The plate is washed with 4×200 μL 0.2M phosphoric acid+0.01% TWEEN 20. After drying, 30 μL Optiphase ‘SuperMix’ liquid scintillation cocktail (Perkin Elmer) is added to the well prior to scintillation counting (1450 Microbeta Liquid Scintillation Counter, Wallac).
Ki(app) data are calculated from non-linear regression analysis of the initial rate data using the Prism software package (GraphPad Prism version 3.0cx for Macintosh, GraphPad Software, San Diego Calif., USA).

c-Met = c-Met (Homo sapiens, UniProt P08581); test: c-Met Inhibition Assay, coupled enzyme system; settings: enzyme inhibition data (Ki), Table 11
Sequence of c-Met (P08581 25-1390): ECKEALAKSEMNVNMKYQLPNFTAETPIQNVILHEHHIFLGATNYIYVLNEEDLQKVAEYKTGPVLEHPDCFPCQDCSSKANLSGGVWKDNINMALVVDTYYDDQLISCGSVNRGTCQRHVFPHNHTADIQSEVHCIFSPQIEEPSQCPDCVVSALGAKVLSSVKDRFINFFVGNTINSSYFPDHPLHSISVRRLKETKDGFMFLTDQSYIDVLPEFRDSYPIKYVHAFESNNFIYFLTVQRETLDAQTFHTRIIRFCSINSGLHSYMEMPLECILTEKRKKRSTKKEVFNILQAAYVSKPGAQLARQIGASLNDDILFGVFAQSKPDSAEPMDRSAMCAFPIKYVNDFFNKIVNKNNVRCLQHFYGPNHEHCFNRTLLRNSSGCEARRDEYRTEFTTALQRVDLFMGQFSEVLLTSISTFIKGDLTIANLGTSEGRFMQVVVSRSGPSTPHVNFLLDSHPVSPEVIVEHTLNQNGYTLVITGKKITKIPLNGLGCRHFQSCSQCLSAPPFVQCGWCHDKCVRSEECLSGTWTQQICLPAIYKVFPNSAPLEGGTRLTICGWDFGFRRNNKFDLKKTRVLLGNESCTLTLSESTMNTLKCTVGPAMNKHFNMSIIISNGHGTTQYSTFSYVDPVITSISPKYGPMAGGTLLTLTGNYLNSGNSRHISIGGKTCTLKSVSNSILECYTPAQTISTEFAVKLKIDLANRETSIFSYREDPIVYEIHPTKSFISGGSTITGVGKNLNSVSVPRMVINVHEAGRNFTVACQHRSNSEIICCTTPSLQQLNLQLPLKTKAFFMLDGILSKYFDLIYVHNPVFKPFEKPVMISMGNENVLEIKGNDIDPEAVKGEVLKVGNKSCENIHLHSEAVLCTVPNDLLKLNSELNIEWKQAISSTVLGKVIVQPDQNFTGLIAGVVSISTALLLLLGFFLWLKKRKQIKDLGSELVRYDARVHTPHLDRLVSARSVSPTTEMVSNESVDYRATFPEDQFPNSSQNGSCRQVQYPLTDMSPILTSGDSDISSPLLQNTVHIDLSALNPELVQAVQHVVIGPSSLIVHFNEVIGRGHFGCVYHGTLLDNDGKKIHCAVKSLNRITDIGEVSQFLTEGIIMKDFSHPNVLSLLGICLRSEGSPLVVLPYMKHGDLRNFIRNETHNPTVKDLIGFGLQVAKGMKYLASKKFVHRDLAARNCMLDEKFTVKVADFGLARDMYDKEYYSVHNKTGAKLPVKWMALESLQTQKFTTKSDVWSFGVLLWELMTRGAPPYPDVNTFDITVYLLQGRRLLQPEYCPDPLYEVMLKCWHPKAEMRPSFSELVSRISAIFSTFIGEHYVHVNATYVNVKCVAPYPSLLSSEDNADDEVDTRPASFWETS
Procedure: Compounds are screened for their ability to inhibit c-Met kinase activity using a standard coupled enzyme system (Fox et al., Protein Sci. 1998, 7, 2249). Reactions are carried out in a solution containing 100 mM HEPES (pH 7.5), 10 mM MgCl2, 25 mM NaCl, 300 μM NADH, 1 mM DTT, and 1.5% DMSO. Final substrate concentrations in the assay are 200 μM ATP (Sigma Chemicals, St Louis, Mo.) and 10 μM polyGluTyr (Sigma Chemical Company, St. Louis). Reactions are carried out at 30° C. and 80 nM c-Met. Final concentrations of the components of the coupled enzyme system are 2.5 mM phosphoenolpyruvate, 300 μM NADH, 30 μg/ml pyruvate kinase and 10 μg/ml lactate dehydrogenase.
An assay stock buffer solution is prepared containing all of the reagents listed above with the exception of ATP and a test compound of the present invention. The assay stock buffer solution (175 μl) is incubated in a 96 well plate with 5 μl of the test compound of the present invention at final concentrations spanning 0.006 μM to 12.5 μM at 30° C. for 10 minutes. Typically, a 12-point titration is conducted by preparing serial dilutions (from 10 mM compound stocks) with DMSO of the test compounds of the present invention in daughter plates. The reaction is initiated by the addition of 20 μl of ATP (final concentration 200 μM). Rates of reaction are obtained using a Molecular Devices Spectramax plate reader (Sunnyvale, Calif.) over 10 minutes at 30° C. The Ki values are determined from the rate data as a function of inhibitor concentration.

Row | Ki (JAK3) | Ki (Itk) | Ki (c-Met) | SMILES
1 | > 5 µM |  |  | Cc1ccn2nc(N)c(-c3ccccc3)c2n1 [Compound V-1]
2 | > 5 µM | 0.5 to 5 µM | 0.5 to 5 µM | COc1cccc(OC)c1-c1cnc2c(-c3ccccn3)c(N)nn2c1 [Compound V-3]
3 | > 5 µM | 0.5 to 5 µM | 0.5 to 5 µM | Cc1cccc(C)c1-c1cnc2c(-c3ccccn3)c(N)nn2c1 [Compound V-4]
4 | > 5 µM | 0.5 to 5 µM | 0.5 to 5 µM | Nc1nn2cc(-c3ccccc3C(F)(F)F)cnc2c1-c1ccccn1 [Compound V-5]
5 | 0.5 to 5 µM | 0.5 to 5 µM | 0.5 to 5 µM | CC(=O)c1ccccc1-c1cnc2c(-c3ccccn3)c(N)nn2c1 [Compound V-6]
6 | > 5 µM | 0.5 to 5 µM | 0.5 to 5 µM | Cc1ccccc1-c1cnc2c(-c3ccccn3)c(N)nn2c1 [Compound V-7]
7 | > 5 µM | 0.5 to 5 µM | 0.5 to 5 µM | Nc1nn2cc(-c3ccccc3O)cnc2c1-c1ccccn1 [Compound V-8]
8 | > 5 µM | 0.5 to 5 µM | 0.5 to 5 µM | CCc1ccccc1-c1cnc2c(-c3ccccn3)c(N)nn2c1 [Compound V-9]
9 | > 5 µM | 0.5 to 5 µM | 0.5 to 5 µM | N#Cc1ccccc1-c1cnc2c(-c3ccccn3)c(N)nn2c1 [Compound V-10]
10 | > 5 µM | 0.5 to 5 µM | 0.5 to 5 µM | Nc1nn2cc(-c3ccccc3C(=O)O)cnc2c1-c1ccccn1 [Compound V-11]
11 | > 5 µM | 0.5 to 5 µM | 0.5 to 5 µM | Nc1nn2cc(-c3ccccc3C=O)cnc2c1-c1ccccn1 [Compound V-12]
12 | > 5 µM | 0.5 to 5 µM | 0.5 to 5 µM | Nc1nn2cc(-c3ccccc3F)cnc2c1-c1ccccn1 [Compound V-13]
13 | > 5 µM | 0.5 to 5 µM | 0.5 to 5 µM | Nc1nn2cc(-c3ccccc3-c3ccccc3)cnc2c1-c1ccccn1 [Compound V-15]
14 | > 5 µM | 0.5 to 5 µM | 0.5 to 5 µM | CS(=O)(=O)Nc1ccccc1-c1cnc2c(-c3ccccn3)c(N)nn2c1 [Compound V-16]
15 | > 5 µM | 0.5 to 5 µM | 0.5 to 5 µM | COC(=O)/C=C/c1ccccc1-c1cnc2c(-c3ccccn3)c(N)nn2c1 [Compound V-17]
16 | > 5 µM | 0.5 to 5 µM | 0.5 to 5 µM | Nc1nn2cc(-c3ccccc3OC(F)F)cnc2c1-c1ccccn1 [Compound V-19]
17 | > 5 µM | 0.5 to 5 µM | 0.5 to 5 µM | Nc1ccccc1-c1cnc2c(-c3ccccn3)c(N)nn2c1 [Compound V-20]
18 | > 5 µM | 0.5 to 5 µM | 0.5 to 5 µM | Nc1nn2cc(-c3ccccc3[N+](=O)[O-])cnc2c1-c1ccccn1 [Compound V-21]
19 | > 5 µM | 0.5 to 5 µM | 0.5 to 5 µM | CN(C)Cc1ccccc1-c1cnc2c(-c3ccccn3)c(N)nn2c1 [Compound V-23]
20 | > 5 µM | 0.5 to 5 µM |  | Nc1nn2cc(-c3cccc(C(=O)N4CCC(N5CCCC5)CC4)n3)cnc2c1-c1ccccn1 [Compound V-121]
21 | > 5 µM | 0.5 to 5 µM |  | Nc1nn2cc(-c3ccc(N4CCCC4)nc3)cnc2c1-c1ccccn1 [Compound V-143]
22 |  | < 0.5 µM |  | Nc1nn2cc(-c3ccc(C=O)cc3)cnc2c1-c1ccccn1 [Compound V-193]
23 |  | < 0.5 µM |  | N#Cc1ccc(-c2cnc3c(-c4ccccn4)c(N)nn3c2)cc1 [Compound V-196]
24 |  | < 0.5 µM |  | Nc1nn2cc(-c3ccc(CCl)cc3)cnc2c1-c1ccccn1 [Compound V-203]
25 |  | < 0.5 µM |  | Nc1nn2cc(-c3cccc(CCl)c3)cnc2c1-c1ccccn1 [Compound V-210]
26 |  | 0.5 to 5 µM |  | COc1ccc(-c2cn3nc(N)c(-c4ccccn4)c3nc2C(F)(F)F)cc1 [Compound V-218]
27 |  | 0.5 to 5 µM |  | COc1ccc(-c2cnc3c(-c4ccc(C)cn4)c(N)nn3c2)cc1 [Compound V-220]
28 |  | 0.5 to 5 µM | < 0.5 µM | Cc1cnc2c(-c3cc(N[C@H](C)c4ccccc4)ncn3)c(N)nn2c1 [Compound V-300]
29 |  | 0.5 to 5 µM | 0.5 to 5 µM | Cc1cnc2c(-c3cc(N[C@@H](C)c4ccccc4)ncn3)c(N)nn2c1 [Compound V-301]
30 |  | 0.5 to 5 µM | < 0.5 µM | CCN(CC)C(=O)C1CCCN(c2cc(-c3c(N)nn4cc(C)cnc34)ncn2)C1 (centres unmarked) [Compound V-338]
